Columns and labels:
furin = molecular target: T1, furin (Homo sapiens, UniProt P09958); experiment: SPR (Biacore X100, furin amine-coupled on CM5, steady-state affinity); also inhibits recombinant furin in a fluorimetric assay; type: binding
T1 construct: commercial recombinant Human Furin

SF-268 = experiment: cells; parameters: glioma cell line sensitivity to 2OHOA, half maximal inhibitory concentration; conditions: Homo sapiens, SF-268
SF-295 = experiment: cells; parameters: glioma cell line sensitivity to 2OHOA, half maximal inhibitory concentration; conditions: Homo sapiens, SF-295
U-118 MG = experiment: cells; parameters: glioma cell line sensitivity to 2OHOA, half maximal inhibitory concentration; conditions: Homo sapiens, U-118-MG
U-251 MG = experiment: cells; parameters: glioma cell line sensitivity to 2OHOA, half maximal inhibitory concentration; conditions: Homo sapiens, U-251
U-87 MG = experiment: cells; parameters: glioma cell line sensitivity to 2OHOA, half maximal inhibitory concentration; conditions: Homo sapiens, U-87 MG

T1 sequence (P09958 108-794): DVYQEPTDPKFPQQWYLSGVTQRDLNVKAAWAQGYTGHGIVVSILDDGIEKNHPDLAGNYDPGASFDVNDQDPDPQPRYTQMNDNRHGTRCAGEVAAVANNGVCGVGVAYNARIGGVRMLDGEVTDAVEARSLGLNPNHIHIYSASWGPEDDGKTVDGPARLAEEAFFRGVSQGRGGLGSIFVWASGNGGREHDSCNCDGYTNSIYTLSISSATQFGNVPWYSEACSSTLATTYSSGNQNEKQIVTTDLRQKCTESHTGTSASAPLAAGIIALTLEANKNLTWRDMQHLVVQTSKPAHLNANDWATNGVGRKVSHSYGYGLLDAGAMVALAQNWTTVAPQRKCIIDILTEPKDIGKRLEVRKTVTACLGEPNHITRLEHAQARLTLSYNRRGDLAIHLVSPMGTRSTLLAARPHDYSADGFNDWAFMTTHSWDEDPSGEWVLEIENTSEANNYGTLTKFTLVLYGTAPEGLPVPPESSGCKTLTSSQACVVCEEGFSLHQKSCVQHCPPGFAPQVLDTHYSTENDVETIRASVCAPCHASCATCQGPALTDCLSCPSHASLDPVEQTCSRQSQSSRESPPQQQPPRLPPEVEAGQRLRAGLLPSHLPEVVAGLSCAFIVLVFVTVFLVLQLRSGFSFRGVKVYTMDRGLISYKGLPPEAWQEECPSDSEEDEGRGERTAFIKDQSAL

Kd (furin): 19.5 µM
IC50 (SF-268): 240 µM
IC50 (SF-295): 300 µM
IC50 (U-118 MG): 180 µM
IC50 (U-251 MG): 427 µM
IC50 (U-87 MG): 172 µM
Structure (SMILES): CCCCCCCC/C=C\CCCCCCC(O)C(=O)O (stereo not drawn) [2OHOA, 2-hydroxy-9-cis-ocadecenoic acid]

Reference: PMC11996967, “Targeting the Notch-Furin axis with 2-hydroxyoleic acid: a key mechanism in glioblastoma therapy” (Cellular Oncology, 2024)
